Assay results reported in the NIST ThermoML archive (doi:10.1016/j.jct.2015.12.029).
± gives the expanded uncertainty stated by the source.

Key:
[1] = 100 kPa, Liquid, Vibrating tube method
[2] = mn = molality of the nth substance listed, in mol/kg; details: 100 kPa, Liquid, Vibrating tube method, m2 = 0

| mass density ([1]; 283.15 K) | mass density ([1]; 288.15 K) | mass density ([1]; 293.15 K) | mass density ([1]; 298.15 K) | mass density ([1]; 303.15 K) | mass density ([1]; 308.15 K) | mass density ([1]; 313.15 K) | mass density ([1]; 318.15 K) | mass density ([2]; 283.15 K) | mass density ([2]; 288.15 K) | mass density ([2]; 293.15 K) | mass density ([2]; 298.15 K) | mass density ([2]; 303.15 K) | mass density ([2]; 308.15 K) | mass density ([2]; 313.15 K) | mass density ([2]; 318.15 K) | SMILES |
| --- | --- | --- | --- | --- | --- | --- | --- | --- | --- | --- | --- | --- | --- | --- | --- | --- |
| 817.103 ± 0.22 kg/m3 | 813.337 ± 0.22 kg/m3 | 809.548 ± 0.22 kg/m3 | 805.738 ± 0.22 kg/m3 | 801.901 ± 0.22 kg/m3 | 798.032 ± 0.22 kg/m3 | 794.128 ± 0.23 kg/m3 | 790.181 ± 0.23 kg/m3 | – | – | – | – | – | – | – | – | CCCCO [butan-1-ol] |
| – | – | – | – | – | – | – | – | 817.103 ± 0.23 kg/m3 | 813.337 ± 0.23 kg/m3 | 809.548 ± 0.23 kg/m3 | 805.738 ± 0.23 kg/m3 | 801.901 ± 0.23 kg/m3 | 798.032 ± 0.23 kg/m3 | 794.128 ± 0.23 kg/m3 | 790.181 ± 0.23 kg/m3 | CCCCO [butan-1-ol] + CCn1cc[n+](C)c1.F[B-](F)(F)F |
| – | – | – | – | – | – | – | – | 817.103 ± 0.23 kg/m3 | 813.337 ± 0.23 kg/m3 | 809.548 ± 0.23 kg/m3 | 805.738 ± 0.23 kg/m3 | 801.901 ± 0.23 kg/m3 | 798.032 ± 0.23 kg/m3 | 794.128 ± 0.23 kg/m3 | 790.181 ± 0.23 kg/m3 | CCCCO [butan-1-ol] + CCCCn1cc[n+](C)c1.F[B-](F)(F)F |
